This note sets out measurements from article PMC11079064, “Discovery of a brain penetrant small molecule antagonist targeting LPA1 receptors to reduce neuroinflammation and promote remyelination in multiple sclerosis” (Scientific Reports, 2024).

One test has as its target T1, human LPA1 (Homo sapiens, UniProt Q92633).
T1 construct: expressed in transfected cells
Briefly: Competitive membrane filter radioligand binding assay. The settings on record: membranes from cells overexpressing human LPA1, LPA1 selective radioligand.

Another test concerns the target T2, LPA1 (Mus musculus, UniProt P61793).
T2 construct: from tissue; host or cells: mouse brain (homogenate; forebrain of dosed C57BL6/N mice in the in vivo studies)
Briefly: In vivo brain binding of [3H]-OPC3497 radioligand. The settings on record: PIPE-791 dosed orally 2 h prior; 5 and 30 minutes after radioligand. As for the experimental part:
Supplemental Figure 3. OPC3497 is a suitable radioligand for evaluating LPA1 receptor occupancy. Following IV administration, [^3H]-OPC3497 binding in mouse brain increased rapidly, peaked 5 minutes post-dose and declined sharply over the evaluation period (2 h).

The subject of test [1] is CC1+/OLIG2+ oligodendrocytes. Kind of test: In vivo CC1 induction assay. Also on record: species or system mouse. The settings on record: single 3 mg/kg dose, brains collected 5 days later. The source says:
Sections were immunostained for the mature oligodendrocyte marker, CC1, and the oligodendroglial marker, OLIG2 to represent the total OPC/oligodendrocyte population.
Female C57Bl/6 mice (9–11 weeks old) were used in this experiment, n = 5/group. […] On day 5, mice were sacrificed and brains submerged in formalin. Tissue was sectioned at 40 µm on a sliding microtome (ThermoFisher, Microm HM450, Waltham, MA). Four sections per mouse were immunostained. Sections were permeabilized and blocked by incubation with 20% goat serum (Millipore Sigma, St. Louis, MO) and 0.2% Triton X-100 (Millipore Sigma, St. Louis, MO) in PBS. Oligodendrocytes were detected with a rat monoclonal antibody to Anti-APC (1:500, Calbiochem, San Diego, CA), and the total pool OPC/oligodendrocyte pool were detected with a rabbit monoclonal antibody to Olig-2 (1:500, Invitrogen, Carlsbad, CA). Alexa Fluor 594 and 647 IgG secondary antibodies against rat and rabbit (1:1000, Invitrogen, Carlsbad, CA) were used for primary antibody detection. Cell nuclei were identified with Hoechst (1:1000, Invitrogen, Carlsbad, CA). […] Detection and quantification of the cells were performed using NIS Elements imaging software (Nikon, Minato, Tokyo).
Supplemental Figure 5. […] Sections were immunostained using antibodies against CC1 (mature oligodendrocytes), Olig2 (oligodendroglial marker), and counterstained with Hoechst. […]

The subject of test [2] is MOG-EAE mouse model. Briefly: MOG-EAE mouse model, body weight and clinical score. In kind it is in vivo. On the procedure: This model recapitulates several of the features thought to occur in MS and is a widely used model of inflammatory demyelination.
On Day 0, EAE was induced using a MOG35–55/CFA Emulsion PTX Hooke Kit™ (Hooke Laboratories, Lawrence, MA). Briefly, per manufacturer’s instructions, each mouse was administered a total of 0.2 ml emulsion delivered via dorsal subcutaneous injections of 0.1 ml each to the mid-scapula and lower lumbar regions. Pertussis toxin was prepared per lot-specific instructions and administered via intraperitoneal injection of 0.1 ml (200 ng) on Day 0, 2 h post-MOG administration, and again on Day 1, 24 h post-MOG.
Each treatment group contained 12 mice, except for the age-matched control group which contained 8 mice.
Body weights and clinical scores were recorded daily.

The subject of test [3] is MOG-EAE mouse model. Briefly: MOG-EAE mouse model, visual evoked potentials. It counts as in vivo. The settings on record: day 21. On the procedure:
To further assess myelin status, we measured conductance velocity in the optic nerve, a heavily myelinated tract that is sensitive to demyelination. To measure conductance, we utilized visual evoked potentials (VEPs), a measure for which clinical translatability makes it an especially salient endpoint[42],[43]. VEPs were measured on day 21. […] In comparison, latency in MOG immunized animals had slowed to 60.9 ms.
VEP recordings were conducted 21–24 days post-MOG induction (for simplification, this will be referred to as a nominal Day 21 VEP throughout this document). To do this, animals were placed in a room with red light conditions and allowed to adapt for 1 h. Animals were anesthetized with an intraperitoneal injection of ketamine/Xyalazine (75/10 mg/kg). Pupils were dilated with 1.0% tropicamide (1 drop per eye) (Akorn Pharmaceuticals, Lake Forest, IL). One minute following application tropicamide, one drop of Genteal (Alcon Laboratories, Fort Worth, TX) was applied to each eye to maintain ocular moisture during anesthesia.
VEPs were conducted using a Celeris system (Diagnosys, Lowell, MA). […] Flash VEPs were recorded from each eye independently and simultaneously. […] VEP waveforms were analyzed using Espion (Diagnosys, Lowell, MA). N1 latency for each eye was determined by averaging N1 from 3 independent VEP traces. Similarly, P1–N1 and N1–P1 amplitudes were determined. […]

In test [4] the test system is MOG-EAE mouse model. Kind of test: MOG-EAE mouse model, IBA1 immunostaining of spinal cord. In kind it is in vivo. The settings on record: 3 mg/kg. On the procedure:
A lower lumbar segment of spinal cord was transferred from the EM fixative to 30% sucrose overnight and then sectioned using a sliding microtome. The resulting sections were stored in 30% sucrose in 0.1 M Phosphate Buffer pH 7.4 and stored at 4 °C. Free-floating spinal cord sections were rinsed with PBS, blocked with 5% normal goat serum in 0.1% Triton-X/PBS for 2 h, and subsequently incubated with antibodies against IBA1 (Life Technologies, Carlsbad, CA, 1:500) or CD3 (Abcam, Waltham, MA, 1:500) overnight at 4 °C. Sections were then washed 3 times with 0.1% triton-X/PBS and transferred to secondary antibody (1:500, Carlsbad, CA) in 0.1% Triton-X/PBS for 2 h at room temperature. Hoechst 33342 was diluted 1:2000 and added during the final wash step. Sections were stained with 1% Sudan Black in 70% ethanol, and washed 3 × 5 min in PBS. Stained sections were mounted onto slides and evaluated using a Nikon A1R confocal microscope and analyzed using Nikon NIS Elements software. Regions of interest (ROIs) were selected based on the largest contiguous lesion defined by Hoechst and Sudan Black co-staining. […] Cells were counted using the automatic General Analysis function in NIS Elements.
Supplemental Figure 9. […] Left, IBA1^+ area was quantified and normalized to Hoechst counts (* p = 0.0166, *** p=0.0002, mean ± SEM, ANOVA with Tukey’s, n>4). […]

“Also recorded” adds a separate entry of the source.

T1 sequence (Q92633 whole entry): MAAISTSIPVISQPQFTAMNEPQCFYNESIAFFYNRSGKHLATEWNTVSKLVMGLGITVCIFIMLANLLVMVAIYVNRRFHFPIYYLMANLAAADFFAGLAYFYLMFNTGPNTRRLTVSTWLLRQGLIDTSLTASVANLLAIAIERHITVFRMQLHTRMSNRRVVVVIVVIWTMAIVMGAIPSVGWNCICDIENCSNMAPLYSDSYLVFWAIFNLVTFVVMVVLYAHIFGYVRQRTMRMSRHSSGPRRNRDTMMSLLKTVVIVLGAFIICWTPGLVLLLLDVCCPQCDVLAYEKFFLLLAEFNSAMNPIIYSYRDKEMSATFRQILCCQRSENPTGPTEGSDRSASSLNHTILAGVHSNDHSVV
T2 sequence (P61793 whole entry): as the sequence (Q92633 whole entry) above, with I4A, I8S, P22Q, H40Y, I61V, E193D, N194H, I269V, S331N, T335N counted along it
Procedure for human LPA1: Binding assay: Membranes were prepared from B103 cells stably expressing human LPA1 receptor. Cells were resuspended in a hypotonic buffer containing 0.25 M sucrose/0.2 mM EDTA. After 30 min on ice, cells were centrifuged at 41,415 × g. Membrane pellet was resuspended in 20 mM HEPES, pH 7.4 storage buffer and centrifuged at 41,415 × g. Membranes were resuspended in storage buffer + 1 mM dithiothreitol. Protein was quantified using the DC Protein Assay (Bio-Rad, Hercules, CA), aliquoted, and stored at – 80 °C until assay. A tritiated LPA1 selective antagonist[10] was used as radiolabeled ligand. […] The plates were shaken at 300 rpm for 2 h at room temperature. GF/B plates assay filter plates (Perkin Elmer, Boston, MA, Waltham, MA) were prepared by adding 50 µl of 0.5% polyethylenimine (Millipore Sigma, St. Louis, MO) and incubated at room temperature for > 30 min. The assay was terminated by vacuum filtration (Brandel Harvester). Plates were washed 3 × with 2 ml ice cold buffer containing 50 mM HEPES + 100 mM NaCl + 2 mM EDTA, pH 7.4. Once dry, 50 µl of Betaplate Scintillation Cocktail (Perkin Elmer, Boston, MA) was added to each well. After a 20 min incubation, plates were read on the Perkin Elmer TopCount.

Consider `COc1ccc(NC(=O)N(c2ccccc2C(C)C)C2CCC(C(=O)O)CC2)c(OC(F)F)n1` (stereo not shown) [PIPE-791], for which the half-inhibitory concentration (IC50) on human LPA1 amounted to 2.63 nM. Moreover, at LPA1, the “effect on total [3H]-OPC3497 binding in brain” value is recorded as “significantly reduced”. In addition, the “increase in CC1+/OLIG2+ oligodendrocytes” value in test [1] was 163%. Besides, in the test with MOG-EAE mouse model [2] (0.3 mg/kg oral once daily), the “clinical score by day 24” value was 1.5, the disease onset is 14 days and the peak clinical score is 2.1. Also, in the test on MOG-EAE mouse model [2] (3 mg/kg oral once daily), the “clinical score at study end” value is listed as 1.5, the disease onset was 14 days and the peak clinical score is given as 1.4. Moreover, the “cumulative body weight (day 0 to 24)” value with MOG-EAE mouse model [2] (0.3 and 3 mg/kg oral once daily) is “Significant increases”. In the test on MOG-EAE mouse model [3] (0.3 mg/kg), the “VEP N1 latency” value is 54.6 ms. The “VEP N1 latency” value in the test with MOG-EAE mouse model [3] (3 mg/kg) was determined as 52 ms. In addition, in the test on MOG-EAE mouse model [4], the “level of IBA1+ staining in spinal cord” value is “reduces IBA1^+ area; also recorded: significantly reduced”.

As usually defined, the IC50 is the concentration at which inhibition is half-maximal. A high value points to lower potency.
